Assay results: patent publication US20250206722A1, “SMALL MOLECULE INHIBITORS OF TEA DOMAIN FAMILY MEMBERS” (The Scripps Research Institute, priority 2022, published 2025)

Legend:
NCI-H226 cells = test: NCI-H226 proliferation assay (in house); assay type: cell-based; details: Homo sapiens, 120 h, 5 days, Cell TiterGlo, 20-point 1:2 dilution from 20 μM
Description: NCI-H226 Proliferation Assay
NCI-H226 cells were obtained from American Type Culture Collection (ATCC, CRL-5826) and cultured in RPMI 1640 with L-glutamine (Corning, 10-040-CV) supplemented with 10% fetal bovine serum (Gibco, 10438-026) and 1% penicillin-streptomycin (Gibco, 15070063). Cells were trypsinized, resuspended in growth medium, and diluted to a concentrated of 10,000 cells/mL. 500 cells, 50 μL of cell suspension, per well were then plated in a white 384-well plate (Corning) and incubated at 37° C., 5% CO2. After 24 hours incubation, 100 nL of test compounds in DMSO, 20-point 1:2 dilution starting from 20 μM (final concentration) in triplicate, were transferred to each well using an Agilent Bravo instrument outfitted with a pintool head. Cells were incubated at 37° C., 5% CO2 for 5 days followed by the addition of 30 μL of Cell TiterGlo (Promega; diluted 1:6 in water) to each well and luminescence values recorded using an EnVision plate reader. […]

[1] = test system: transcriptional activity of TEADs; test: TEAD reporter assay (MCF7 TEAD-LUC reporter cells); assay type: cell-based; details: Homo sapiens, 24 hours, BrightGlo luminescence
Description: MCF7 TEAD-LUC reporter cells were obtained from BPS Bioscience, Inc. and cultured in DMEM medium (Corning, 10-013-CV) supplemented with 10% fetal bovine serum (Gibco, 10438-026), 1% penicillin-streptomycin (Gibco, 15070063), 1% non-essential amino acids (Gibco, 15070063), and 10 μg/mL insulin (Sigma, 10516). Cells were trypsinized, resuspended in growth medium, and diluted to a concentrated of 100,000 cells/mL. 5,000 cells, 50 μL of cell suspension, per well were then plated in a white 384-well plate (Corning) and incubated at 37° C., 5% CO2. After 24 hours incubation, 100 nL of test compounds in DMSO, 20-point 1:2 dilution starting from 20 μM (final concentration) in triplicate, were transferred to each well using an Agilent Bravo instrument outfitted with a pintool head. Cells were incubated at 37° C., 5% CO2 for 24 hours followed by the addition of 30 μL of BrightGlo (Promega; diluted 1:3 in water) to each well and luminescence values recorded using an EnVision plate reader.
The in vitro assay results of the compounds in the present invention were included in Table 1. The compounds described herein, inhibited the transcriptional activity of TEADs, as assessed by decreased luminance from a TEAD reporter cell line (MCF7 TEAD-LUC) in response to compound treatment.

| SMILES | IC50 (NCI-H226 cells) [µM] | IC50 [1] [nM] |
| --- | --- | --- |
| C=CC(=O)N1CCN(c2ncccc2C(=O)N2CCC(F)(F)CC2)CC1 [Example 161, 1-(4-(3-(4,4-difluoropiperidine-1-carbonyl)pyridin-2-yl)piperazin-1-yl)prop-2-en-1-one] | > 20 | 1730 |
| C=CC(=O)N1CCN(c2nc(OC)ncc2Nc2ccc(C(F)(F)F)cc2)CC1 [Example 133, 1-(4-(2-methoxy-5-((4-(trifluoromethyl)phenyl)amino)pyrimidin-4-yl)piperazin-1-yl)prop-2-en-1-one] | 0.722 | 16.5 |
| C=CC(=O)N1CCN(c2nccnc2Nc2ccc(C(F)F)nc2)CC1 [Example 47, 1-(4-(3-((6-(difluoromethyl)pyridin-3-yl)amino)pyrazin-2-yl)piperazin-1-yl)prop-2-en-1-one] | 0.043 | 4 |
| C=CC(=O)N1CCN(c2nccnc2C(=O)NC2CCC2)CC1 [Example 99, 3-(4-acryloylpiperazin-1-yl)-N-cyclobutylpyrazine-2-carboxamide] | 2.08 | 142 |
| C=C(F)C(=O)N1CCN(c2nccnc2NC2C3CC2C3C(F)(F)F)CC1 (stereo not shown) [Example 68, 2-fluoro-1-(4-(3-((4-(trifluoromethyl)bicyclo[1.1.1]pentan-2-yl)amino)pyrazin-2-yl)piperazin-1-yl)prop-2-en-1-one] | 0.708 | 11 |
| C=CC(=O)N1CC(Nc2nccnc2Nc2ccc(C(F)(F)F)nc2)C1 [Example 62, 1-(3-((3-((6-(trifluoromethyl)pyridin-3-yl)amino)pyrazin-2-yl)amino)azetidin-1-yl)prop-2-en-1-one] | 8.67 | 10.7 |
| C=CC(=O)N1CCN(c2nccnc2Oc2ccc(C(F)(F)F)nc2)CC1 [Example 77, 1-(4-(3-((6-(trifluoromethyl)pyridin-3-yl)oxy)pyrazin-2-yl)piperazin-1-yl)prop-2-en-1-one] | 0.008 | 1.8 |
| C=C(F)C(=O)NCC1CN(c2ccc(C(F)(F)F)nc2)c2nccnc2N1 (stereo not shown) [Example 194] | > 20 | 238 |
| C=C(CN1CC(c2nccnc2Oc2ccc(C(F)(F)F)nc2)C1)C(=O)O [Example 86, 2-((3-(3-((6-(trifluoromethyl)pyridin-3-yl)oxy)pyrazin-2-yl)azetidin-1-yl)methyl)acrylic acid] | 3.01 | 31000 |
| C=C(F)C(=O)N1CCC(c2cccnc2Nc2ccc(C(F)(F)F)nc2)CC1 [Example 150, 2-fluoro-1-(4-(2-((6-(trifluoromethyl)pyridin-3-yl)amino)pyridin-3-yl)piperidin-1-yl)prop-2-en-1-one] | 39.5 | 4430 |
| C=C(F)C(=O)N1CCC(c2ncccc2Oc2ccc(C(F)(F)F)nc2)CC1 [Example 139, 2-fluoro-1-(4-(3-((6-(trifluoromethyl)pyridin-3-yl)oxy)pyridin-2-yl)piperidin-1-yl)prop-2-en-1-one] | 7.03 | 3240 |
| C=CC(=O)N1CCN(c2nccnc2C(=O)NC2CCCC2)CC1 [Example 102, 3-(4-acryloylpiperazin-1-yl)-N-cyclopentylpyrazine-2-carboxamide] | 1.6 | 39 |
| C=C(F)C(=O)N1CC(Nc2nccnc2Nc2ccc(OC(F)(F)F)nc2)C1 [Example 64, 2-fluoro-1-(3-((3-((6-(trifluoromethoxy)pyridin-3-yl)amino)pyrazin-2-yl)amino)azetidin-1-yl)prop-2-en-1-one] | 3.12 | 1680 |
| O=C(COC(F)(F)F)N1CCN(c2nccnc2Nc2ccc(C(F)(F)F)cc2)CC1 [Example 190, 2-(trifluoromethoxy)-1-(4-(3-((4-(trifluoromethyl)phenyl)amino)pyrazin-2-yl)piperazin-1-yl)ethan-1-one] | 0.994 | 12.7 |
| C=C(CF)C(=O)N1CCN(c2nccnc2Nc2ccc(C(F)(F)F)cc2)CC1 [Example 188, 2-(fluoromethyl)-1-(4-(3-((4-(trifluoromethyl)phenyl)amino)pyrazin-2-yl)piperazin-1-yl)prop-2-en-1-one] | 0.013 | 2.3 |
| C=CC(=O)N1CCN(c2nccnc2Nc2ccc(C(F)(F)F)nc2)C[C@@H]1C [Example 53, (S)-1-(2-methyl-4-(3-((6-(trifluoromethyl)pyridin-3-yl)amino)pyrazin-2-yl)piperazin-1-yl)prop-2-en-1-one] | 0.076 | 3.6 |
| C=C(F)C(=O)N1CCC(c2cccnc2Nc2ccc(OC(F)(F)F)nc2)CC1 [Example 152, 2-fluoro-1-(4-(2-((6-(trifluoromethoxy)pyridin-3-yl)amino)pyridin-3-yl)piperidin-1-yl)prop-2-en-1-one] | 22.2 | 13500 |
| O=C(C(O)CO)N1CCN(c2nccnc2Nc2ccc(C(F)(F)F)cc2)CC1 (stereo not shown) [Example 180, 2,3-dihydroxy-1-(4-(3-((4-(trifluoromethyl)phenyl)amino)pyrazin-2-yl)piperazin-1-yl)propan-1-one] | > 20 | > 20000 |
| C=C(F)C(=O)N1CCC(c2cccnc2Oc2cnc(C(F)(F)F)nc2)CC1 [Example 160, 2-fluoro-1-(4-(2-((2-(trifluoromethyl)pyrimidin-5-yl)oxy)pyridin-3-yl)piperidin-1-yl)prop-2-en-1-one] | 2.94 | 1650 |
| C=CC(=O)N1CCN(c2nccnc2Nc2ccc(C(F)(F)F)nc2)C[C@H]1C [Example 54, (R)-1-(2-methyl-4-(3-((6-(trifluoromethyl)pyridin-3-yl)amino)pyrazin-2-yl)piperazin-1-yl)prop-2-en-1-one] | 0.192 | 9 |
| C=C(F)C(=O)N1CCN(c2cccnc2Nc2ccc(C(F)(F)F)nc2)CC1 [Example 144, 2-fluoro-1-(4-(2-((6-(trifluoromethyl)pyridin-3-yl)amino)pyridin-3-yl)piperazin-1-yl)prop-2-en-1-one] | 0.031 | 8.1 |
| C=CC(=O)N1CCC(c2nccnc2Oc2ccc(C(F)(F)F)cn2)CC1 [Example 75, 1-(4-(3-((5-(trifluoromethyl)pyridin-2-yl)oxy)pyrazin-2-yl)piperidin-1-yl)prop-2-en-1-one] | 0.112 | 2.7 |
| C=CC(=O)N1CCN(c2nccnc2Cc2ccc(C(F)(F)F)cc2)CC1 [Example 98, 1-(4-(3-(4-(trifluoromethyl)benzyl)pyrazin-2-yl)piperazin-1-yl)prop-2-en-1-one] | 0.012 | 0.9 |
| C=C(CN1CCC(c2nccnc2Oc2ccc(C(F)(F)F)nc2)CC1)C(=O)O [Example 82, 2-((4-(3-((6-(trifluoromethyl)pyridin-3-yl)oxy)pyrazin-2-yl)piperidin-1-yl)methyl)acrylic acid] | > 20 | > 20000 |
| C=C(F)C(=O)N1CC(Oc2nccnc2Nc2ccc(C(F)(F)F)nc2)C1 [Example 65, 2-fluoro-1-(3-((3-((6-(trifluoromethyl)pyridin-3-yl)amino)pyrazin-2-yl)oxy)azetidin-1-yl)prop-2-en-1-one] | 1.85 | 18.6 |
| C=CC(=O)N1CCC(c2cccnc2Nc2ccc(OC(F)(F)F)nc2)CC1 [Example 151, 1-(4-(2-((6-(trifluoromethoxy)pyridin-3-yl)amino)pyridin-3-yl)piperidin-1-yl)prop-2-en-1-one] | 1.05 | 188 |
